Results from patent US20140058103A1, “Inhibitors of PI3K-Delta and Methods of Their Use and Manufacture” (Exelixis, Inc., priority 2010, published 2014).

Target: PI3K delta (Homo sapiens, UniProt O00329)
Assay: Luciferase-coupled chemiluminescence kinase assay (ATP consumption, KinaseGlo)
Format: biochemical
Protocol: Kinase activity and compound inhibition were investigated using one or more of the assay formats described below. The ATP concentrations used in the various assays were approximately equal to or less than the KM for each of the respective kinases. Dose-response experiments were performed using an intra-plate dilution scheme with 10 different inhibitor concentrations in a 384-well microtiter plate. IC50 values were calculated by nonlinear regression analysis using the four-parameter equation listed below:
Y=min+(max−min)/(1+(X/IC50)^N) Equation 1
Typically N should approximate unity. Curve fitting was performed using XLFit or ActivityBase.
Kinase activity is measured as the percent of ATP consumed following the kinase reaction using luciferase-luciferin-coupled chemiluminescence. […] Kinase reactions were initiated by combining test compounds, kinase, and ATP in a 20 μL volume (6 μL volume for 1536-well plate). The reaction mixture was incubated at ambient temperature for 2 h. Following the kinase reaction, a 20 μL (or […] for 1536-well plate) aliquot of KinaseGlo (Promega) was added and the chemiluminescence signal measured using an EnVision plate reader (Perkin Elmer).

Chain of PI3K delta (O00329 whole entry): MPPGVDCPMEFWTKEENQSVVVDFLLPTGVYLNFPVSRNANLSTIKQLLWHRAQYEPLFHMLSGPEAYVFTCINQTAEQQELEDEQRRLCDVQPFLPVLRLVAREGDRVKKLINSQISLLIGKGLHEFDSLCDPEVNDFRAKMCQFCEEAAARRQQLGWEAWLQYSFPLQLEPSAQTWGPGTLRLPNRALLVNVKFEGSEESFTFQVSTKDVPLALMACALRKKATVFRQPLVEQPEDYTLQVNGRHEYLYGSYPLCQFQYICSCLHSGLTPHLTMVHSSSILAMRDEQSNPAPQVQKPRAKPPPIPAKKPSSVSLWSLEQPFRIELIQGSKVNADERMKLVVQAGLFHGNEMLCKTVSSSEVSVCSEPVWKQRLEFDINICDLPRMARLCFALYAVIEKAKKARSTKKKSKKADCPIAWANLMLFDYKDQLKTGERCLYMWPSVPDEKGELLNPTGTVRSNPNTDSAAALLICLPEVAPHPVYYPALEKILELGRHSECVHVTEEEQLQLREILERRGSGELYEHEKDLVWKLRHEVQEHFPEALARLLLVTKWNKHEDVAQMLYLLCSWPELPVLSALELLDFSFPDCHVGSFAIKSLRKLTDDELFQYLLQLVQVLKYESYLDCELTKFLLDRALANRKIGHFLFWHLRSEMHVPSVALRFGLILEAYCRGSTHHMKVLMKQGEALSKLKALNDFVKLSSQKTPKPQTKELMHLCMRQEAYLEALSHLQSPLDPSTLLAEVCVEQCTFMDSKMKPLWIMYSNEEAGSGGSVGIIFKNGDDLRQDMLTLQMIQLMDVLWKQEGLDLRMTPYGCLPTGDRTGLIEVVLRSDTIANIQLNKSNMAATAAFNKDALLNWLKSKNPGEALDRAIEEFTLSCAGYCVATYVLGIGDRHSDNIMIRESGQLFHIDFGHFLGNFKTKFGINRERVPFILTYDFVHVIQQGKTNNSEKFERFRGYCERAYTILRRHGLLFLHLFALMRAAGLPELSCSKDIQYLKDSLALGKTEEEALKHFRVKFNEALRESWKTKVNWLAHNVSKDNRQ
Chain of PI3K delta (P27986 whole entry partner): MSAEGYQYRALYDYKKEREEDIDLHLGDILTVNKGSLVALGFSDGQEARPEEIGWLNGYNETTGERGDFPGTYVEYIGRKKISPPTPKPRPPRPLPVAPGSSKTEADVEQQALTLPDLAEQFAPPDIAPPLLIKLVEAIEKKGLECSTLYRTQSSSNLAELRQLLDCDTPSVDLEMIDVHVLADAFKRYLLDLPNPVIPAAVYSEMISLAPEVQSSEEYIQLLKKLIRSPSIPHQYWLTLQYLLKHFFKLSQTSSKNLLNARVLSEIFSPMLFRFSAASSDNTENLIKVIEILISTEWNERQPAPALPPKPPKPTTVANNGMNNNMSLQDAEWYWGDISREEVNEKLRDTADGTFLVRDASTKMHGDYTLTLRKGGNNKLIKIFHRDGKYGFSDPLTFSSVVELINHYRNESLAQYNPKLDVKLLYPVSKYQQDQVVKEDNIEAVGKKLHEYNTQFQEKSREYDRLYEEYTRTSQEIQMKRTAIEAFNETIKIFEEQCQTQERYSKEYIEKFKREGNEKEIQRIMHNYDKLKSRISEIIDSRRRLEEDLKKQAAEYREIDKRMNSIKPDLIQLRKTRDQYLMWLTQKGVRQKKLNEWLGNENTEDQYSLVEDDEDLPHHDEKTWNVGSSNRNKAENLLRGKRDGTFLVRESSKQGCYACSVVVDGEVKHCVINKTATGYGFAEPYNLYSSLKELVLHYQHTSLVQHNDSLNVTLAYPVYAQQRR

First: Cn1c(C(=O)N2CC(O)C2)nc2c(N3CCC(n4c(=O)[nH]c5ccccc54)CC3)ncnc21 [Compound 74, 1-(1-{8-[(3-hydroxyazetidin-1-yl)carbonyl]-9-methyl-9H-purin-6-yl}piperidin-4-yl)-1,3-dihydro-2H-benzimidazol-2-one]
Second: CCn1c(C(=O)NC(C)C)nc2c(N3CCC(n4c(=O)[nH]c5ccccc54)CC3)ncnc21 [Compound 196, 9-ethyl-N-(1-methylethyl)-6-[4-(2-oxo-2,3-dihydro-1H-benzimidazol-1-yl)piperidin-1-yl]-9H-purine-8-carboxamide]
The IC50 of the first is higher: 50 to 250 nM for the first, less than 50 nM for the second. The second is the more potent here.

Cn1cc(-c2nc3c(N4CCN(S(=O)(=O)c5ccc(Cl)c(Cl)c5)CC4)ncnc3n2C)cn1 [Compound 380, 6-{4-[(3,4-dichlorophenyl)sulfonyl]piperazin-1-yl}-9-methyl-8-(1-methyl-1H-pyrazol-4-yl)-9H-purine] and COc1ccc(Cl)cc1S(=O)(=O)N1CCN(c2ncnc3c2nc(-c2cnn(C)c2)n3C)CC1 [Compound 388, 6-(4-{[5-chloro-2-(methyloxy)phenyl]sulfonyl}-piperazin-1-yl)-9-methyl-8-(1-methyl-1H-pyrazol-4-yl)-9H-purine] fall in the same range of IC50: 50 to 250 nM for the first, 50 to 250 nM for the second.

Cn1c(C(=O)NCCCCO)nc2c(N3CCC4(CC3)C(=O)Nc3ccccc34)ncnc21 [Compound 13, N-(4-hydroxybutyl)-9-methyl-6-(2-oxo-1,2-dihydro-1′H-spiro[indole-3,4′-piperidin]-1′-yl)-9H-purine-8-carboxamide] and Cn1c(C(=O)NC(C)(C)C)nc2c(N3CCC4(CC3)C(=O)Nc3ccccc34)ncnc21 [Compound 75, N-(1,1-dimethylethyl)-9-methyl-6-(2-oxo-1,2-dihydro-1′H-spiro[indole-3,4′-piperidin]-1′-yl)-9H-purine-8-carboxamide] fall in the same range of IC50: 50 to 250 nM for the first, 50 to 250 nM for the second.

Cn1c(C(=O)N2CCC(F)(F)C2)nc2c(N3CCC4(CC3)C(=O)Nc3ccccc34)ncnc21 [Compound 106, 1′-{8-[(3,3-difluoropyrrolidin-1-yl)carbonyl]-9-methyl-9H-purin-6-yl}spiro[indole-3,4′-piperidin]-2(1H)-one] and Cn1c(C(=O)NCC2CCOCC2)nc2c(N3CCC4(CC3)C(=O)Nc3ccccc34)ncnc21 [Compound 77, 9-methyl-6-(2-oxo-1,2-dihydro-1′H-spiro[indole-3,4′-piperidin]-1′-yl)-N-(tetrahydro-2H-pyran-4-ylmethyl)-9H-purine-8-carboxamide] fall in the same range of IC50: 50 to 250 nM for the first, 50 to 250 nM for the second.

First: Cn1c(C(=O)NC2CCc3ccccc32)nc2c(N3CCC4(CC3)C(=O)Nc3ccccc34)ncnc21 (stereo not shown) [Compound 18, N-(2,3-dihydro-1H-inden-1-yl)-9-methyl-6-(2-oxo-1,2-dihydro-1′H-spiro[indole-3,4′-piperidin]-1′-yl)-9H-purine-8-carboxamide]
Second: Cc1ccccc1CNC(=O)c1nc2c(N3CCC4(CC3)C(=O)Nc3ccccc34)ncnc2n1C [Compound 27, 9-methyl-N-[(2-methylphenyl)methyl]-6-(2-oxo-1,2-dihydro-1′H-spiro[indole-3,4′-piperidin]-1′-yl)-9H-purine-8-carboxamide]
The IC50 of the first is lower: 250 to 500 nM for the first, 500 to 1500 nM for the second. The first is the more potent here.

First: CCn1c(C(=O)NC(C)C2CC2)nc2c(N3CCC4(CC3)C(=O)Nc3ccccc34)ncnc21 (stereo not shown) [Compound 214, N-(1-cyclopropylethyl)-9-ethyl-6-(2-oxo-1,2-dihydro-1′H-spiro[indole-3,4′-piperidin]-1′-yl)-9H-purine-8-carboxamide]
Second: CC(C)c1ccc2c(c1)C1(CCN(c3ncnc4c3nc(C(=O)NCC3CC3)n4C)CC1)C(=O)N2 [Compound 136, N-(cyclopropylmethyl)-9-methyl-6-[5-(1-methylethyl)-2-oxo-1,2-dihydro-1′H-spiro[indole-3,4′-piperidin]-1′-yl]-9H-purine-8-carboxamide]
The IC50 of the first is lower: less than 50 nM for the first, 500 to 1500 nM for the second. The first is the more potent here.

CCc1nnc(-c2nc3c(N4CCC5(CC4)C(=O)Nc4ccccc45)ncnc3n2C)o1 [Compound 182, 1′-[8-(5-ethyl-1,3,4-oxadiazol-2-yl)-9-methyl-9H-purin-6-yl]spiro[indole-3,4′-piperidin]-2(1H)-one] and CCCc1nnc(-c2nc3c(N4CCC5(CC4)C(=O)Nc4ccccc45)ncnc3n2C)o1 [Compound 177, 1′-[9-methyl-8-(5-propyl-1,3,4-oxadiazol-2-yl)-9H-purin-6-yl]spiro[indole-3,4′-piperidin]-2(1H)-one] cannot be ordered by IC50: less than 50 nM for the first, less than 50 nM for the second.

First: CCn1cc(-c2nc3c(N4CCC(n5c(=O)[nH]c6ncccc65)CC4)ncnc3n2C)cn1 [Compound 322, 1-{1-[8-(1-ethyl-1H-pyrazol-4-yl)-9-methyl-9H-purin-6-yl]piperidin-4-yl}-1,3-dihydro-2H-imidazo[4,5-b]pyridin-2-one]
Second: CCOC(=O)Cn1cc(-c2nc3c(N4CCC(n5c(=O)[nH]c6ccccc65)CC4)ncnc3n2C)cn1 [Compound 181, ethyl (4-{9-methyl-6-[4-(2-oxo-2,3-dihydro-1H-benzimidazol-1-yl)piperidin-1-yl]-9H-purin-8-yl}-1H-pyrazol-1-yl)acetate]
The IC50 of the first is lower: less than 50 nM for the first, 250 to 500 nM for the second. The first is the more potent here.

First: Cn1c(C(=O)NCc2ccncc2)nc2c(N3CCC(n4c(=O)[nH]c5ccccc54)CC3)ncnc21 [Compound 52, 9-methyl-6-[4-(2-oxo-2,3-dihydro-1H-benzimidazol-1-yl)piperidin-1-yl]-N-(pyridin-4-ylmethyl)-9H-purine-8-carboxamide]
Second: CC(NC(=O)c1nc2c(N3CCC(n4c(=O)[nH]c5ccccc54)CC3)ncnc2n1C)c1ccccc1 (stereo not shown) [Compound 53, 9-methyl-6-[4-(2-oxo-2,3-dihydro-1H-benzimidazol-1-yl)piperidin-1-yl]-N-(1-phenylethyl)-9H-purine-8-carboxamide]
The IC50 of the first is lower: 50 to 250 nM for the first, 500 to 1500 nM for the second. The first is the more potent here.

First: Cn1c(C(=O)NCC2CC2)nc2c(N3CCC(n4c(=O)[nH]c5c(F)cccc54)CC3)ncnc21 [Compound 278, N-(cyclopropylmethyl)-6-[4-(4-fluoro-2-oxo-2,3-dihydro-1H-benzimidazol-1-yl)piperidin-1-yl]-9-methyl-9H-purine-8-carboxamide]
Second: Cn1c(C(=O)NCC2CC2)nc2c(N3CCC(n4c(=O)[nH]c5ccc(Cl)cc54)CC3)ncnc21 [Compound 229, 6-[4-(6-chloro-2-oxo-2,3-dihydro-1H-benzimidazol-1-yl)piperidin-1-yl]-N-(cyclopropylmethyl)-9-methyl-9H-purine-8-carboxamide]
The IC50 of the first is lower: 50 to 250 nM for the first, 500 to 1500 nM for the second.

First: Cn1c(-c2ccnnc2)nc2c(N3CCC4(CC3)C(=O)Nc3ccccc34)ncnc21 [Compound 313, 1′-(9-methyl-8-pyridazin-4-yl-9H-purin-6-yl)spiro[indole-3,4′-piperidin]-2(1H)-one]
Second: CCCn1cc(-c2nc3c(N4CCC5(CC4)C(=O)Nc4ccccc45)ncnc3n2CC)cn1 [Compound 251, 1′-[9-ethyl-8-(1-propyl-1H-pyrazol-4-yl)-9H-purin-6-yl]spiro[indole-3,4′-piperidin]-2(1H)-one]
The IC50 of the first is higher: 50 to 250 nM for the first, less than 50 nM for the second.

First: Cn1c(C(=O)NCC2CC2)nc2c(N3CC(n4c(=O)[nH]c5cc(C(F)(F)F)ccc54)C3)ncnc21 [Compound 145, N-(cyclopropylmethyl)-9-methyl-6-{3-[2-oxo-5-(trifluoromethyl)-2,3-dihydro-1H-benzimidazol-1-yl]azetidin-1-yl}-9H-purine-8-carboxamide]
Second: Cn1c(C(=O)NCC2CC2)nc2c(N3CCC(n4c(=O)[nH]c5cc(Cl)ccc54)CC3)ncnc21 [Compound 228, 6-[4-(5-chloro-2-oxo-2,3-dihydro-1H-benzimidazol-1-yl)piperidin-1-yl]-N-(cyclopropylmethyl)-9-methyl-9H-purine-8-carboxamide]
The IC50 of the first is lower: 250 to 500 nM for the first, 500 to 1500 nM for the second. The first is the more potent here.

CCn1ncc(-c2nc3c(N4CCC(n5c(=O)[nH]c6ccccc65)CC4)ncnc3n2C)c1C [Compound 281, 1-{1-[8-(1-ethyl-5-methyl-1H-pyrazol-4-yl)-9-methyl-9H-purin-6-yl]piperidin-4-yl}-1,3-dihydro-2H-benzimidazol-2-one] and Cc1ncc(-c2nc3c(N4CCC(n5c(=O)[nH]c6ccccc65)CC4)ncnc3n2C)cn1 [Compound 340, 1-{1-[9-methyl-8-(2-methylpyrimidin-5-yl)-9H-purin-6-yl]piperidin-4-yl}-1,3-dihydro-2H-benzimidazol-2-one] cannot be ordered by IC50: less than 50 nM for the first, less than 50 nM for the second.

First: CCn1c(C(=O)NCC(C)C)nc2c(N3CCC(n4c(=O)[nH]c5ccccc54)CC3)ncnc21 [Compound 158, 9-ethyl-N-(2-methylpropyl)-6-[4-(2-oxo-2,3-dihydro-1H-benzimidazol-1-yl)piperidin-1-yl]-9H-purine-8-carboxamide]
Second: Cn1c(-c2cc[nH]c2)nc2c(N3CCC(n4c(=O)[nH]c5ccccc54)CC3)ncnc21 [Compound 166, 1-{1-[9-methyl-8-(1H-pyrrol-3-yl)-9H-purin-6-yl]piperidin-4-yl}-1,3-dihydro-2H-benzimidazol-2-one]
The IC50 of the first is lower: less than 50 nM for the first, 500 to 1500 nM for the second. The first is the more potent here.

First: COc1ccc(CNC(=O)c2nc3c(N4CCC5(CC4)C(=O)Nc4ccccc45)ncnc3n2C)cc1 [Compound 29, 9-methyl-N-([4-(methyloxy)phenyl]methyl)-6-(2-oxo-1,2-dihydro-1′H-spiro[indole-3,4′-piperidin]-1′-yl)-9H-purine-8-carboxamide]
Second: Cn1c(C(=O)NCc2cccs2)nc2c(N3CCC4(CC3)C(=O)Nc3ccccc34)ncnc21 [Compound 20, 9-methyl-6-(2-oxo-1,2-dihydro-1′H-spiro[indole-3,4′-piperidin]-1′-yl)-N-(2-thienylmethyl)-9H-purine-8-carboxamide]
The IC50 of the first is higher: 500 to 1500 nM for the first, 50 to 250 nM for the second. The second is the more potent here.

In the case of Cn1cc(-c2nc3c(N4CCC(n5c(=O)[nH]c6c(F)cccc65)CC4)ncnc3n2C)cn1 [Compound 295, 4-fluoro-1-{1-[9-methyl-8-(1-methyl-1H-pyrazol-4-yl)-9H-purin-6-yl]piperidin-4-yl}-1,3-dihydro-2H-benzimidazol-2-one], the IC50 is reported as less than 50 nM.
